We go through five compounds from patent publication US9617267B2, “Compounds and methods for kinase modulation, and indications therefor” (Plexxikon Inc., priority 2009, dated 2017).

One data set addresses CYP2C19 (Homo sapiens (Human), UniProt P33261). The data set can be described thus: CYP enzyme inhibition, fluorescent substrate (CEC). The procedure, abridged:
(§1)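 IC50 values come from plotting product fluorescence against compound concentration; inhibition lowers formation of the fluorescent metabolite. Ten-point twofold dilutions in co-factor mix were held 10 minutes at 37 °C before the enzyme reaction, also run at 37 °C.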

The target of another data set is CYP1A2 (Homo sapiens (Human), UniProt P05177). The data set can be described thus: CYP enzyme inhibition, fluorescent substrate (CEC). In short, it runs like this: (§2)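 Ten-point 1:1 compound dilutions in NADPH-regenerating cofactor mix, pre-incubated 10 min at 37 °C before enzyme/substrate addition: CYP1A2 0.5 pmol with 5 μM CEC, 15 min, 409 ex/460 em; CYP2D6 1.5 pmol with 1.5 μM AMMC, 30 min, 409 ex/530 em. IC50 from fluorescent product vs concentration.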
Sequence of CYP1A2 (P05177 whole entry): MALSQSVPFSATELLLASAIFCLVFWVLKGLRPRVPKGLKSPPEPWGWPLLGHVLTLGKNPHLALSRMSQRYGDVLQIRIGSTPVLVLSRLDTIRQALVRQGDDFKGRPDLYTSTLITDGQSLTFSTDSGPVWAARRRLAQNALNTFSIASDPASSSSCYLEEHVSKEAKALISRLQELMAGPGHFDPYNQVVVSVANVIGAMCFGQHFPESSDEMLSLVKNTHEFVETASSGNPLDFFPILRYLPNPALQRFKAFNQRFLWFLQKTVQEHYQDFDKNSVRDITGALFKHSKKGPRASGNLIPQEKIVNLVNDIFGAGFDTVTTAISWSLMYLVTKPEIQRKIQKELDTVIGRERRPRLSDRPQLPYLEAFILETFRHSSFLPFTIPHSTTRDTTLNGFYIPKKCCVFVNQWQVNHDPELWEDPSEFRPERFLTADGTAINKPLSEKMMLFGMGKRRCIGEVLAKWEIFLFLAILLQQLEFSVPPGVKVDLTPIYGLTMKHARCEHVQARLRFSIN

In a further data set the target is c-Raf-1 (Homo sapiens, UniProt P04049). In words: c-Raf-1 kinase activity biochemical assay (AlphaScreen, biotin-MEK1 phosphorylation). In short, it runs like this:
(§3)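 Biotin-MEK1 phosphorylation measured after 45 min kinase reaction at RT with 100 μM ATP final; compounds tested at 8 points from 0.1 mM DMSO stock.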
On the technique in general: In Alpha technology, singlet oxygen from a donor bead excites a nearby acceptor bead.

A further data set addresses CYP2C9 (Homo sapiens (Human), UniProt P11712). The data set can be described thus: CYP enzyme inhibition, fluorescent substrate (MFC). The procedure, abridged: as §1
For the next data set, the target named is CYP3A4 (Homo sapiens (Human), UniProt P08684). The data set can be described thus: CYP enzyme inhibition, fluorescent substrate BFC. The conditions noted are these: human, CYP3A4 enzyme (BD Biosciences), probe BFC. The procedure, abridged:
as §1

The next data set has as its target CYP3A4(BQ) (Homo sapiens (Human), UniProt P08684). In words: CYP enzyme inhibition, fluorescent substrate BQ. The procedure, abridged:
as §1

The next data set has as its target CYP2D6 (Homo sapiens (Human), UniProt P10635). The data set can be described thus: CYP enzyme inhibition, fluorescent substrate (AMMC). Format: in vitro ADME. The conditions noted are these: read-out: Cyp IC50 2D6. The procedure, abridged:
as §2

For another data set, the target named is B-Raf V600E (Homo sapiens (Human), UniProt P15056, V600E). The data set can be described thus: B-Raf V600E kinase activity biochemical assay (AlphaScreen, biotin-MEK1 phosphorylation). The conditions noted are these: for IC50: B-Raf V600E; for Biochemical activity ratio V600E/C: ratio of IC50 B-Raf V600E / c-Raf-1. The procedure, abridged: as §3
Sequence of B-Raf V600E (P15056 whole entry V600E): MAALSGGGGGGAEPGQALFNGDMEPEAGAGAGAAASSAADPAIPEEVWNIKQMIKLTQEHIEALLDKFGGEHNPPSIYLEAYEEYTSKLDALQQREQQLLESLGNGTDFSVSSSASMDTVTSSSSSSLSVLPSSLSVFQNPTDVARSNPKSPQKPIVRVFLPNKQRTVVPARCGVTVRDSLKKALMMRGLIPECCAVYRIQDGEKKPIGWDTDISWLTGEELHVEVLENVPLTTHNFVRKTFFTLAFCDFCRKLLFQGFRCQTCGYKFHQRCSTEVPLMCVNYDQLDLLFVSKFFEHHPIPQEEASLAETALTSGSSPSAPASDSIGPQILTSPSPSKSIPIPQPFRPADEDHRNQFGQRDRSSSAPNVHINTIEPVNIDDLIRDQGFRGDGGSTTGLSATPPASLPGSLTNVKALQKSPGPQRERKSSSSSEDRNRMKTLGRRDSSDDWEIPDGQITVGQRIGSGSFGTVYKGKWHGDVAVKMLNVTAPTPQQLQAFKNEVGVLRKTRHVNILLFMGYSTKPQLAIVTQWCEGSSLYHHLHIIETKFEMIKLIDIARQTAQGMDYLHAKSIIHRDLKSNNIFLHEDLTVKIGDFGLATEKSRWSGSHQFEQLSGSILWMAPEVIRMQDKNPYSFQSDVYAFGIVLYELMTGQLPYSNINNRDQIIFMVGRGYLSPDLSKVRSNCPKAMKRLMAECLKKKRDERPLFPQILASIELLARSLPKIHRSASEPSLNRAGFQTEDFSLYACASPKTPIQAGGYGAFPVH
In data set [1] the target is B-Raf (Homo sapiens (Human), UniProt P15056). In words: B-Raf kinase activity biochemical assay (AlphaScreen, biotin-MEK1 phosphorylation). The conditions noted are these: B-Raf. In short, it runs like this:
as §3

Data set [2] deals with B-Raf. Described as above. The conditions noted are these: for Biochemical activity ratio B/V600E: ratio of IC50 B-Raf / B-Raf V600E; for Biochemical activity ratio B/C: ratio of IC50 B-Raf / c-Raf-1. The procedure, abridged:
as §3

Data set [3] can be described thus: Relative solubility by turbidity threshold concentration in aqueous buffers (pH 1.5, 4.5, 6.8, 7.4). Particulars: for turbidity threshold (L, M, H) 1.4: pH 1.4 [sic] (method: SGF pH 1.5); for turbidity threshold (L, M, H) 4.5: pH 4.5 (SIF); for turbidity threshold (L, M, H) 6.8: pH 6.8 (SIF); for turbidity threshold (L, M, H) 7.4: pH 7.4 (HEPES). Format: physicochemical. In short, it runs like this: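 Solubility class (high >250 μM, moderate 31.3–250 μM, low <31.3 μM) comes from the concentration where absorbance reaches a 0.01 threshold, averaged across 490/535/650 nm. Samples were compound dilutions from DMSO stock, 1 μL into 99 μL buffer at pH 1.5, 4.5, 6.8 or 7.4.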

The target in another data set is CYP3A4(BFC) (Homo sapiens (Human), UniProt P08684). The data set can be described thus: CYP enzyme inhibition, fluorescent substrate BFC. The procedure, abridged: as §1
Sequence of CYP3A4(BFC) (P08684 whole entry): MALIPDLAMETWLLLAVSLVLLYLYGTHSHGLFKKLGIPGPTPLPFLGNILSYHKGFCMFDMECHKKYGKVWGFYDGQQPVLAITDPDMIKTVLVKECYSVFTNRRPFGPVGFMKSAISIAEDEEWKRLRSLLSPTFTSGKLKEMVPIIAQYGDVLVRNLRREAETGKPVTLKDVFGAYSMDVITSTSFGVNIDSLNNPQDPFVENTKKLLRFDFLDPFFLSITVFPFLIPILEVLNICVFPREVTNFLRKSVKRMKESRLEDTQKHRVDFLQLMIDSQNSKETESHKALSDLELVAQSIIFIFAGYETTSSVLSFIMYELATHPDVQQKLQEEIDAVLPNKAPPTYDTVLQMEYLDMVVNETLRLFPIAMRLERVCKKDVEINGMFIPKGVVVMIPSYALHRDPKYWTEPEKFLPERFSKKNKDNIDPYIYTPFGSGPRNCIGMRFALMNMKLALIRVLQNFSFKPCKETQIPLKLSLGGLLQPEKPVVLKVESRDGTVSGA
Setting [4] is: read-out: Cyp IC50 2C19, CYP2C19, substrate CEC.
Where [5] appears, read: read-out: Cyp IC50 2C9, CYP2C9, substrate MFC.
Where [6] appears, read: read-out: Cyp IC50 3A4(BQ), CYP3A4, substrate BQ.

Like-named read-outs stand apart in the source and are kept apart here. A value given as a limit tells only on which side of the number the result lay.

Usually IC50 stands for the midpoint of a concentration-inhibition curve.

Sequence of CYP2C19 (P33261 whole entry): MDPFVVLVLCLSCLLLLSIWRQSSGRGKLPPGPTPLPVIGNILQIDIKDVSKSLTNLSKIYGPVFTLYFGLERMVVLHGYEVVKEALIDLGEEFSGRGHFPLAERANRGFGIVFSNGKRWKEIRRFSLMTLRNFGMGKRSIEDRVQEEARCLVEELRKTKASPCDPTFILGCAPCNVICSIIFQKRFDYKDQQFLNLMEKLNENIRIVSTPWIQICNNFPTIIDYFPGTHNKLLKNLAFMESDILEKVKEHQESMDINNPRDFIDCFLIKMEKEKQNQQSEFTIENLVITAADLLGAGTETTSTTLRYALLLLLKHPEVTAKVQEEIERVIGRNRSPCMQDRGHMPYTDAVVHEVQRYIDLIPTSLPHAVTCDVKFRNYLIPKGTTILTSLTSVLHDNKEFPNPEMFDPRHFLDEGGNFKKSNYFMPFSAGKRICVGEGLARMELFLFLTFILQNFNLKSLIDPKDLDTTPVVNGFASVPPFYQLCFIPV
Sequence of CYP2D6 (P10635 whole entry): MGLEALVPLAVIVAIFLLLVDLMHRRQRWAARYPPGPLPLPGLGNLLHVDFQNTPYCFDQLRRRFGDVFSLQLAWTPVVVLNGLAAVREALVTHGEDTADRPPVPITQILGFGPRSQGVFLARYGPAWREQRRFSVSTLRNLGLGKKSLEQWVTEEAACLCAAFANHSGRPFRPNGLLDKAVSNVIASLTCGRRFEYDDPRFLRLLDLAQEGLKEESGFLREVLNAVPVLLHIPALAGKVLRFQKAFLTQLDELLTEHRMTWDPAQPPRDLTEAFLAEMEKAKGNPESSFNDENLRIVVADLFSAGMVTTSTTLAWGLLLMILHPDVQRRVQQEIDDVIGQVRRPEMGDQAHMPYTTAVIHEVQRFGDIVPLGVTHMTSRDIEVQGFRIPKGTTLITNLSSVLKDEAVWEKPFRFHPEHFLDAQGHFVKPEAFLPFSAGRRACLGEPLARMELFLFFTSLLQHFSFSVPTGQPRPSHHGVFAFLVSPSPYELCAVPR
Sequence of c-Raf-1 (P04049 whole entry, looked up): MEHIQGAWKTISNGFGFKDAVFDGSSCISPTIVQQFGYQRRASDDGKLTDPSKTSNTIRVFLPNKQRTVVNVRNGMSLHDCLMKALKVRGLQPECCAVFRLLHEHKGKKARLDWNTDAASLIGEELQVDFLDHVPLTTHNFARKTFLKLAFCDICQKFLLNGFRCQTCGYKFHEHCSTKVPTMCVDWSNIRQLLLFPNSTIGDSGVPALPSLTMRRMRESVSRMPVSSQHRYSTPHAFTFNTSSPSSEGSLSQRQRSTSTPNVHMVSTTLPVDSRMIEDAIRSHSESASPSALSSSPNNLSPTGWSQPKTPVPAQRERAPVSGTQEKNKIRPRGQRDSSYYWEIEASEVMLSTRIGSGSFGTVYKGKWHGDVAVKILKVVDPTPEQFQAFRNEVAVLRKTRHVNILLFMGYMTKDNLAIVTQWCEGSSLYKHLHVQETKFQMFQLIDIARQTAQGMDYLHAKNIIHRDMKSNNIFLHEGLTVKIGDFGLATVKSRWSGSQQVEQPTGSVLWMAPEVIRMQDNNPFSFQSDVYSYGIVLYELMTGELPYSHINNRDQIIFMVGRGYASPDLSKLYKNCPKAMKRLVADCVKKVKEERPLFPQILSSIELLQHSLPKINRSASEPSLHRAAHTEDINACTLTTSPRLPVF
Sequence of B-Raf (Homo sapiens (Human), UniProt P15056) (P15056 whole entry): as the sequence (P15056 whole entry V600E) above, with E600V counted along it
Sequence of CYP2C9 (P11712 whole entry): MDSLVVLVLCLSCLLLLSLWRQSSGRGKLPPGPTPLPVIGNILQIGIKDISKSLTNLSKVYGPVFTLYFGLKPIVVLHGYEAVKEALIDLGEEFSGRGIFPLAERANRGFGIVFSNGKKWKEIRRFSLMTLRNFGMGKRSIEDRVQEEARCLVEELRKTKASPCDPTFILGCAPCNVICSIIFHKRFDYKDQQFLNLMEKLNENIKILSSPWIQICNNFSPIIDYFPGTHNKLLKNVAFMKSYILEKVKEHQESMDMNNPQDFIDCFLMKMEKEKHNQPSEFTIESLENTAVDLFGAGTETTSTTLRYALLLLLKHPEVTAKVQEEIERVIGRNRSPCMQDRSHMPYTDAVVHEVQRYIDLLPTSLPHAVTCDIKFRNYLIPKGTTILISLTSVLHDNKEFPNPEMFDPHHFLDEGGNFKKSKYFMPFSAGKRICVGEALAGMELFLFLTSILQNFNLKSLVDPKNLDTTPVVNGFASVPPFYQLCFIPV
Sequence of CYP3A4(BQ) (P08684 whole entry): as the sequence (P08684 whole entry) above
Sequence of CYP3A4 (P08684 whole entry): as above

For the compound `CCCS(=O)(=O)Nc1ccc(F)c(C(=O)c2c[nH]c3nccc(NC4CCCC4)c23)c1F` [P-2012, Propane-1-sulfonic acid [3-(4-cyclopentylamino-1H-pyrrolo[2,3-b]pyridine-3-carbonyl)-2,4-difluoro-phenyl]-amide], the IC50 at 30 min is more than 10 µM at CYP2C19 (human, CYP2C19 enzyme (BD Biosciences), probe CEC); more than 10 µM against CYP3A4; more than 10 µM on CYP2D6 (human, CYP2D6 enzyme (BD Biosciences), probe AMMC). Moreover, at CYP1A2 (human, CYP1A2 enzyme (BD Biosciences), probe CEC), the IC50 at 15 min is more than 10 µM. In addition, the IC50 was less than 0.1 µM against c-Raf-1, more than 10 µM against CYP3A4(BQ), less than 0.1 µM at B-Raf V600E and more than 0.1 µM against B-Raf [1]. For the same compound, the IC50 at 45 min against CYP2C9 (human, CYP2C9 enzyme (BD Biosciences), probe MFC) is more than 10 µM. On B-Raf V600E, the “Biochemical activity ratio V600E/C” value is recorded as 0.1-10. Besides, the “Biochemical activity ratio B/V600E” value in the data set with B-Raf [2] is on record as 0.1-10. Moreover, the “Biochemical activity ratio B/C” value with B-Raf [2] is recorded as more than 10.

Consider `COCCNc1ncnc2[nH]cc(C(=O)c3c(F)ccc(NS(=O)(=O)c4ccc(C(F)(F)F)cc4)c3F)c12` [P-1058, N-{2,4-Difluoro-3-[4-(2-methoxy-ethylamino)-7H-pyrrolo[2,3-d]pyrimidine-5-carbonyl]-phenyl}-4-trifluoromethyl-benzenesulfonamide], for which the “turbidity threshold (L, M, H) 1.4” value in [3] was “M (moderate solubility if the threshold concentration is 31.3 μM to 250 μM)”. The “turbidity threshold (L, M, H) 4.5” value in data set [3] is “L (low solubility if the threshold concentration is <31.3 μM)”. Also, the “turbidity threshold (L, M, H) 6.8” value in data set [3] is “L (low solubility if the threshold concentration is <31.3 μM)”. For the same compound, the “turbidity threshold (L, M, H) 7.4” value in data set [3] is recorded as “L (low solubility if the threshold concentration is <31.3 μM)”. Moreover, the IC50 is more than 10 µM at CYP2C19 (setting [4]); more than 10 µM on CYP1A2 (human, 15 min); less than 0.1 µM against c-Raf-1; more than 10 µM on CYP2C9 (setting [5]); 5 to 10 µM against CYP3A4(BFC); more than 10 µM on CYP3A4(BQ) (setting [6]). The IC50 is more than 10 µM on CYP2D6, more than 0.1 µM against B-Raf V600E and less than 0.1 µM against B-Raf [1]. Also, on B-Raf V600E, the “Biochemical activity ratio V600E/C” value is listed as more than 10. In the data set with B-Raf [2], the “Biochemical activity ratio B/V600E” value is reported as 0.1-10. Further, in the data set on B-Raf [2], the “Biochemical activity ratio B/C” value is given as 0.1-10.

On to `Cc1c(Cl)cnc2[nH]cc(C(=O)c3c(F)ccc(NS(=O)(=O)c4ccc(C(F)(F)F)cc4)c3F)c12` [P-2011, N-[3-(5-Chloro-4-methyl-1H-pyrrolo[2,3-b]pyridine-3-carbonyl)-2,4-difluoro-phenyl]-4-trifluoromethyl-benzene sulfonamide], for which the “turbidity threshold (L, M, H) 1.4” value in data set [3] was “L (low solubility if the threshold concentration is <31.3 μM)”. Besides, the “turbidity threshold (L, M, H) 4.5” value in data set [3] is recorded as “L (low solubility if the threshold concentration is <31.3 μM)”. Besides, the “turbidity threshold (L, M, H) 6.8” value in data set [3] is listed as “L (low solubility if the threshold concentration is <31.3 μM)”. The “turbidity threshold (L, M, H) 7.4” value in data set [3] was “L (low solubility if the threshold concentration is <31.3 μM)”. Also, the IC50 against CYP2C19 was less than 5 µM; at CYP1A2 it was more than 10 µM; against c-Raf-1 it was less than 0.1 µM; on CYP2C9 it was more than 10 µM; at CYP3A4(BFC) it was more than 10 µM; at CYP3A4(BQ) it was more than 10 µM. Also, the IC50 was 5 to 10 µM on CYP2D6, more than 0.1 µM against B-Raf V600E and less than 0.1 µM against B-Raf [1]. On B-Raf V600E, the “Biochemical activity ratio V600E/C” value was more than 10. Further, the “Biochemical activity ratio B/V600E” value in the data set on B-Raf [2] is recorded as 0.1-10. Besides, the “Biochemical activity ratio B/C” value in the data set on B-Raf [2] is on record as 0.1-10.

For the compound `CCCS(=O)(=O)Nc1ccc(F)c(C(=O)c2c[nH]c3ncnc(NC4CCOCC4)c23)c1F` [P-1047, Propane-1-sulfonic acid {2,4-difluoro-3-[4-(tetrahydro-pyran-4-ylamino)-7H-pyrrolo[2,3-d]pyrimidine-5-carbonyl]-phenyl}-amide], in data set [3], the “turbidity threshold (L, M, H) 1.4” value was “M (moderate solubility if the threshold concentration is 31.3 μM to 250 μM)”. Moreover, the “turbidity threshold (L, M, H) 4.5” value in data set [3] is “L (low solubility if the threshold concentration is <31.3 μM)”. The “turbidity threshold (L, M, H) 6.8” value in data set [3] is “L (low solubility if the threshold concentration is <31.3 μM)”. In [3], the “turbidity threshold (L, M, H) 7.4” value is “L (low solubility if the threshold concentration is <31.3 μM)”. Moreover, the IC50 at CYP2C19 (setting [4]) is more than 10 µM; at CYP1A2 (read-out: Cyp IC50 1A2, CYP1A2, substrate CEC) it was more than 10 µM; at c-Raf-1 it was less than 0.1 µM; on CYP2C9 (setting [5]), more than 10 µM; at CYP3A4(BFC) (read-out: Cyp IC50 3A4(BFC), CYP3A4, substrate BFC), more than 10 µM; at CYP3A4(BQ) (setting [6]), more than 10 µM. For the same compound, the IC50 at CYP2D6 was more than 10 µM; at B-Raf V600E it was less than 0.1 µM; on B-Raf [1], less than 0.1 µM. In addition, the “Biochemical activity ratio V600E/C” value on B-Raf V600E was more than 10. In addition, the “Biochemical activity ratio B/V600E” value in the data set on B-Raf [2] is 0.1-10. In the data set with B-Raf [2], the “Biochemical activity ratio B/C” value is on record as more than 10.

For the compound `CCCS(=O)(=O)Nc1ccc(F)c(C(=O)c2c[nH]c3ncc(Cl)c(OC)c23)c1F` [P-2006, Propane-1-sulfonic acid [3-(5-chloro-4-methoxy-1H-pyrrolo[2,3-b]pyridine-3-carbonyl)-2,4-difluoro-phenyl]-amide], in data set [3], the “turbidity threshold (L, M, H) 1.4” value is “M (moderate solubility if the threshold concentration is 31.3 μM to 250 μM)”. Besides, the “turbidity threshold (L, M, H) 4.5” value in data set [3] is given as “M (moderate solubility if the threshold concentration is 31.3 μM to 250 μM)”. Also, the “turbidity threshold (L, M, H) 6.8” value in [3] is on record as “M (moderate solubility if the threshold concentration is 31.3 μM to 250 μM)”. Besides, in data set [3], the “turbidity threshold (L, M, H) 7.4” value is recorded as “M (moderate solubility if the threshold concentration is 31.3 μM to 250 μM)”. Also, the IC50 was less than 5 µM against CYP2C19; more than 10 µM at CYP1A2; less than 0.1 µM at c-Raf-1; less than 5 µM against CYP2C9; 5 to 10 µM against CYP3A4(BFC); more than 10 µM on CYP3A4(BQ). The IC50 is more than 10 µM on CYP2D6, less than 0.1 µM against B-Raf V600E and less than 0.1 µM against B-Raf [1]. Further, the “Biochemical activity ratio V600E/C” value at B-Raf V600E is recorded as 0.1-10. In the data set on B-Raf [2], the “Biochemical activity ratio B/V600E” value is given as 0.1-10. The “Biochemical activity ratio B/C” value in the data set with B-Raf [2] was more than 10.
